According to patent publication US11623919B2, “Heterocyclic P2X7 antagonists” (AXXAM S.P.A., priority 2017, dated 2023):

Legend:
Assay type in all cases: cell-based
[1] = target: T1, P2X7 receptor (Homo sapiens, UniProt Q99572); assay: Screen Quest Fluo-8 No Wash Calcium Assay (Bz-ATP evoked Ca2+ influx, FLIPR); set-up: hP2X7 (IC50; nM); other: hP2X7; HEK-293 cells stably transfected with P2X7 receptor, Bz-ATP at EC80, Fluo-8 NW; potency; details: hP2X7; HEK-293 cells stably transfected with P2X7 receptor, Bz-ATP at EC80, Fluo-8 NW; potency ranges A-D
T1 sequence (Q99572 1-595): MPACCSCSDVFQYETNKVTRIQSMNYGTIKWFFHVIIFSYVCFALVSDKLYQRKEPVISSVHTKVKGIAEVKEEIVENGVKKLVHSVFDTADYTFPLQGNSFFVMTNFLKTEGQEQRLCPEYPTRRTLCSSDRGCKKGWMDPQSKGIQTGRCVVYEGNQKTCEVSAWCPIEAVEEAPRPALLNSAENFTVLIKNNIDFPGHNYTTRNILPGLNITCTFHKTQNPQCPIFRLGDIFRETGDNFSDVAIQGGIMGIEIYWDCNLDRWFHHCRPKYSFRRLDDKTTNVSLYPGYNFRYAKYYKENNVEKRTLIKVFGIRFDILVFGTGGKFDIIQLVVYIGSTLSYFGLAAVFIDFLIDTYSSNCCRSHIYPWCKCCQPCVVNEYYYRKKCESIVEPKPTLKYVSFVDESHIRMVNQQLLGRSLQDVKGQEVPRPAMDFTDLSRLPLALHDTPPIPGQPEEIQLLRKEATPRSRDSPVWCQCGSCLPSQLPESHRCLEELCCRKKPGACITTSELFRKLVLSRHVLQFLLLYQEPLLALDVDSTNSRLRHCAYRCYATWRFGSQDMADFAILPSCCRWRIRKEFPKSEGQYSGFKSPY
Summary of the method: (§1)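 HEK-293 cells stably expressing P2X7 were loaded with Fluo-8 NW for 1 h at RT, then given compound, and 5 min later Bz-ATP at EC80. Fluorescence was read by FLIPR in low divalent cation buffer (0.3 mM Ca2+, 0 mM Mg2+). IC50 came from percent inhibition relative to reference antagonist A438079.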

[2] = target: T1, P2X7 receptor; assay: Automated patch-clamp (QPatch16X) P2X7 channel assay; set-up: expressed in transfected cells; host or cells: HEK-293; details: HEK-293 cells expressing P2X7 channels; whole-cell, held at -80 mV; 100 microM BzATP; compound 1, 10, 100 and 1000 nM; read-out: Q-Patch (IC50)
Experimental: In order to directly monitor the block of P2X7 channel, an electrophysiological assay was developed and implemented on the QPatch16X automated electrophysiology instrument.
HEK-293 cells expressing the P2X7 channels were cultured in modified EMEM.
72 hours before experiment, 5 million cells were seeded onto T225 flasks. Just before the experiment cells were washed twice, detached from the flask with trypsin-EDTA, re-suspended in the suspension solution and placed on the QPatch 16x.
The compounds (20 mM in a 100% DMSO) stored at −20° C. were prepared the day of the experiment (a first dilution 1:20 in 100% DMSO to prepare a 1 mM stock solution, then a 1 microM solution in external solution+a serial dilution 1:10).
The standard whole-cell voltage clamp experiments were performed at room temperature. From these experiments the multihole technology was used and the data were sampled at 2 KHz.
The intracellular solution contained (mM) 135 CsF, 10 NaCl, 1 EGTA, 10 HEPES, (pH 7.2 with CsOH) whereas the extracellular contained (mM) 145 NaCl, 4 KCl, 0.5 MgCl2, 1 CaCl2, 10 HEPES, 10 Glc (pH 7.4 with NaOH).
After establishment of the seal and the passage in the whole cell configuration, the cells were held at −80 mV. The P2XR7 current was evoked by applying 100 microM of BzATP alone (4 times) and then in the presence increasing concentrations of the compound under investigation (1, 10, 100 and 1000 nM).
The pre-incubation periods 5 to 8 contain increasing concentrations of the compound of interest (1, 10, 100 and 1000 nM), as illustrated in FIGURE (application protocol).
The maximal inward current evoked by BzATP in absence or presence of increasing concentrations of the compounds under investigation was measured and normalized. The potential […] effect was measured as % of control and as IC50 determined fitting the dose-response curves data with the following equation: Y=100/(1+10^((Log IC50−X)*HillSlope))

[3] = target: T2, P2X7 receptor (Mus musculus, UniProt Q9Z1M0); assay: Screen Quest Fluo-8 No Wash Calcium Assay (Bz-ATP evoked Ca2+ influx, FLIPR); details: mP2X7; HEK-293 cells stably transfected with P2X7 receptor, Bz-ATP at EC80, Fluo-8 NW; potency ranges A-D
T2 construct: mP2X7 (IC50; nM); other: mP2X7; HEK-293 cells stably transfected with P2X7 receptor, Bz-ATP at EC80, Fluo-8 NW; potency
T2 sequence (Q9Z1M0 1-595): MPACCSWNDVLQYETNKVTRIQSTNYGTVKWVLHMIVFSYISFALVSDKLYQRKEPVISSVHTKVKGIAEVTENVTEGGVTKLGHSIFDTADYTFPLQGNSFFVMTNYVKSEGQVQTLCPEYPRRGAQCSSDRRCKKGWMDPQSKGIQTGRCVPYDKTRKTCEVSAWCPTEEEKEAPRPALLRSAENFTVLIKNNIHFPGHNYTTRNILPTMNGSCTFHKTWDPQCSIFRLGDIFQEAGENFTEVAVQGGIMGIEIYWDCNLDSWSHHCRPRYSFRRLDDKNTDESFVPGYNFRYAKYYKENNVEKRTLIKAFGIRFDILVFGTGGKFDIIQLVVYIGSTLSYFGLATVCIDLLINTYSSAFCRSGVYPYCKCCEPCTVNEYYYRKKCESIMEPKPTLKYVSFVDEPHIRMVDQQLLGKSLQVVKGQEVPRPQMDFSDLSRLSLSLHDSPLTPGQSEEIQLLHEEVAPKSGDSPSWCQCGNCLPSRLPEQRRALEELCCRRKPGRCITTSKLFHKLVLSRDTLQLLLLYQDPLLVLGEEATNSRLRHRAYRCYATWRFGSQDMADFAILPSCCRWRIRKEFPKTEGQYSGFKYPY
Summary of the method: as §1

SMILES | IC50 [1] | IC50 [2] | IC50 [3]
O=c1onc(Cc2c(F)cccc2Cl)n1Cc1cccc(F)c1 [Example 26, 3-[(2-chloro-6-fluorophenyl)methyl]-4-[(3-fluorophenyl)methyl]-4,5-dihydro-1,2,4-oxadiazol-5-one] | 200 to 1000 nM | 182 nM | 200 to 1000 nM
CC(c1ccc(F)cc1)n1c(Cc2c(F)cccc2Cl)noc1=O (stereo not drawn) [Example 48, 3-[(2-chloro-6-fluorophenyl)methyl]-4-[1-(4-fluorophenyl)ethyl]-4,5-dihydro-1,2,4-oxadiazol-5-one] | 200 to 1000 nM | 386 nM | 200 to 1000 nM
O=c1snc(Cc2c(F)cccc2Cl)n1CC1CCCCC1 [Example 140, 3-[(2-chloro-6-fluorophenyl)methyl]-4-(cyclohexylmethyl)-4,5-dihydro-1,2,4-thiadiazol-5-one] | 200 to 1000 nM | 39.2 nM | 1000 to 10000 nM
O=c1onc(Cc2ccccc2C(F)(F)F)n1CC1CCCCC1 [Example 116, 4-(cyclohexylmethyl)-3-{[2-(trifluoromethyl)phenyl]methyl}-4,5-dihydro-1,2,4-oxadiazol-5-one] | 200 to 1000 nM | 466 nM | 1000 to 10000 nM
O=c1onc(Cc2c(F)cccc2Cl)n1CC1CCC(F)(F)CC1 [Example 84, 3-[(2-chloro-6-fluorophenyl)methyl]-4-[(4,4-difluorocyclohexyl)methyl]-4,5-dihydro-1,2,4-oxadiazol-5-one] | < 200 nM | 8.43 nM | < 200 nM
O=c1onc(Cc2c(F)cccc2Cl)n1CC1CCCCC1(F)F (stereo not drawn) [Example 97, 3-[(2-chloro-6-fluorophenyl)methyl]-4-[(2,2-difluorocyclohexyl)methyl]-4,5-dihydro-1,2,4-oxadiazol-5-one] | < 200 nM | 100 nM | 200 to 1000 nM
O=c1onc(Cc2cccc(Cl)c2Cl)n1Cc1ccc(F)cc1 [Example 71, 3-[(2,3-dichlorophenyl)methyl]-4-[(4-fluorophenyl)methyl]-4,5-dihydro-1,2,4-oxadiazol-5-one] | 200 to 1000 nM | 1160 nM | 1000 to 10000 nM
O=c1onc(Cc2ccc(F)cc2F)n1CC1CCCCC1 [Example 119, 4-(cyclohexylmethyl)-3-[(2,4-difluorophenyl)methyl]-4,5-dihydro-1,2,4-oxadiazol-5-one] | 200 to 1000 nM | 268 nM | 200 to 1000 nM
Cc1cc(F)ccc1Cn1c(Cc2c(F)cccc2Cl)noc1=O [Example 25, 3-[(2-chloro-6-fluorophenyl)methyl]-4-[(4-fluoro-2-methylphenyl)methyl]-4,5-dihydro-1,2,4-oxadiazol-5-one] | < 200 nM | 51.1 nM | 200 to 1000 nM
O=c1onc(Cc2c(F)cccc2Cl)n1CC1CCCCCC1 [Example 92, 3-[(2-chloro-6-fluorophenyl)methyl]-4-(cycloheptylmethyl)-4,5-dihydro-1,2,4-oxadiazol-5-one] | < 200 nM | 18.1 nM | 200 to 1000 nM
O=c1onc(Cc2ccc(F)cc2Cl)n1CC1CCCCC1 [Example 114, 3-[(2-chloro-4-fluorophenyl)methyl]-4-(cyclohexylmethyl)-4,5-dihydro-1,2,4-oxadiazol-5-one] | 200 to 1000 nM | 165 nM | 200 to 1000 nM
O=c1onc(Cc2ccc(F)cc2Cl)n1Cc1ccc(F)cc1 [Example 73, 3-[(2-chloro-4-fluorophenyl)methyl]-4-[(4-fluorophenyl)methyl]-4,5-dihydro-1,2,4-oxadiazol-5-one] | 200 to 1000 nM | 423 nM | 1000 to 10000 nM
O=c1onc(Cc2ccc(Cl)cc2Cl)n1CC1CCCCC1 [Example 118, 4-(cyclohexylmethyl)-3-[(2,4-dichlorophenyl)methyl]-4,5-dihydro-1,2,4-oxadiazol-5-one] | 200 to 1000 nM | 1090 nM | 1000 to 10000 nM
O=c1onc(Cc2c(F)cccc2Cl)n1CC1CCCC1 [Example 85, 3-[(2-chloro-6-fluorophenyl)methyl]-4-(cyclopentylmethyl)-4,5-dihydro-1,2,4-oxadiazol-5-one] | < 200 nM | 167 nM | 200 to 1000 nM
O=c1onc(Cc2ccccc2F)n1CC1CCCCC1 [Example 120, 4-(cyclohexylmethyl)-3-[(2-fluorophenyl)methyl]-4,5-dihydro-1,2,4-oxadiazol-5-one] | 200 to 1000 nM | 162 nM | 200 to 1000 nM
O=c1onc(CC2CCC(F)(F)CC2)n1Cc1c(F)cccc1Cl [Example 132, 4-[(2-chloro-6-fluorophenyl)methyl]-3-[(4,4-difluorocyclohexyl)methyl]-4,5-dihydro-1,2,4-oxadiazol-5-one] | < 200 nM | 3.36 nM | < 200 nM
O=c1onc(Cc2c(F)cccc2Cl)n1CC1CCC(F)(F)C1 (racemic) [Example 128, 3-[(2-chloro-6-fluorophenyl)methyl]-4-[(3,3-difluorocyclopentyl)methyl]-4,5-dihydro-1,2,4-oxadiazol-5-one] | < 200 nM | 45.2 nM | 200 to 1000 nM
O=c1onc(Cc2cccc(Cl)c2Cl)n1CC1CCCCC1 [Example 115, 4-(cyclohexylmethyl)-3-[(2,3-dichlorophenyl)methyl]-4,5-dihydro-1,2,4-oxadiazol-5-one] | 200 to 1000 nM | 72.7 nM | 1000 to 10000 nM
O=c1onc(Cc2c(F)cccc2Cl)n1CC12CCC(CC1)C2 [Example 91, 4-{bicyclo [2.2.1]heptan-1-ylmethyl}-3-[(2-chloro-6-fluorophenyl)methyl]-4,5-dihydro-1,2,4-oxadiazol-5-one] | < 200 nM | 22 nM | 200 to 1000 nM
CC1CCCCC1Cn1c(Cc2c(F)cccc2Cl)noc1=O (stereo not drawn) [Example 87, 3-[(2-chloro-6-fluorophenyl)methyl]-4-[(2-methylcyclohexyl)methyl]-4,5-dihydro-1,2,4-oxadiazol-5-one] | < 200 nM | 44.1 nM | 200 to 1000 nM
